# pIC50: −log10 of the molar value.
# Columns and labels:
# hERG potassium channel = target: T1, hERG potassium channel (Homo sapiens, UniProt Q12809); assay: hERG whole-cell patch-clamp test in HEK-293 cells; format: cell-based; details: HEK-293 cells stably expressing hERG, whole-cell patch clamp, 0.03-30 µM, read-out: h ERG IC50
# T1 construct: host or cells: HEK-293
# Procedure: HEK-293 cell line stably expressing hERG potassium channels (purchased from Creacell, catalog number: A-0320) was used. HEK293 cell lines were cultured in DMEM medium containing 10% fetal bovine serum and 0.8 mg/mL G418 at a temperature of 37°C and a carbon dioxide concentration of 5%. For patch-clamp assays, cells were separated using TrypLE™ Express before the assay. 4 × 10^3 cells were seeded onto coverslips and cultured in 24-well plates (final volume: 500 µL). The assays were performed 18 hours later.
# Whole-cell patch-clamp test: after whole-cell sealing is achieved, the cell membrane voltage is clamped to -80mV. […] Data was collected every 10 seconds to observe the effect of the drug on hERG tail current. A -50 mV stimulus of 0.5 s was used as the leakage current detection. Experimental data were collected by the EPC-10 amplifier and stored in the software. Once the hERG current recorded in whole cells stabilized, drug administration began. Each drug concentration was administered for 5 minutes (or the current stabilized) before the next concentration was measured.
# [1] = test system: bleomycin-induced pulmonary fibrosis in rats; assay: Bleomycin-induced pulmonary fibrosis in rats; details: mean ± SD, n=10; for Percentage of lung collagen fibers (%): Masson's staining; for IL-6 / TGF-β: bronchoalveolar lavage fluid, ELISA
# Procedure: 50 SD rats were randomly divided into 5 groups according to their body weight, with 10 rats in each group and half male and half female.
# After anesthetizing rats with chloral hydrate, bleomycin solution was injected into the trachea through the vocal cords at a dose of 5 mg/kg and a volume of 1 ml/kg; rats in the blank control group were injected with an equal volume of physiological saline into the trachea. […] Blood and lungs were collected from each group of animals on day 22. After euthanizing the rats, the trachea was exposed, and an intravenous cannula was inserted into the rat's bronchus. The trachea was lavaged twice with PBS (5 ml), and the lavage fluid was collected. Then, centrifugation was performed at 1500 r/min for 10 min. The supernatant was collected.
# [2] = test system: mouse eosinophilic asthma model; assay: Eosinophilic asthma induced by house dust mite extract in mice; details: eosinophilic asthmatic mice, n=10; for IL-4 / IgE: bronchoalveolar lavage fluid, Mean ± SD; for Eosinophils (%): lung lavage fluid; for Eosinophils (%) / Number of sneezes (20 minutes): mean ± SD; for Number of sneezes (20 minutes): within 20 minutes after the last administration
# Procedure: The number of eosinophils in the lung lavage fluid of mice and the number of sneezes in mice within 20 minutes after the last administration were counted.
# [3] = test system: rat model of chronic obstructive pulmonary disease (COPD); assay: Chronic obstructive pulmonary disease in rats (fumigation and intratracheal LPS); details: n=8; for 14-day FEV 1/FVC (%): day 14 of treatment; for 14-day FEV 1/FVC (%) / 28-day FEV 1/FVC (%): Mean ± SD; for 28-day FEV 1/FVC (%): last administration (28 days); for Pathological score: lung tissue, HE staining; for Pathological score / IL-1β / TNF-α: mean ± SD; for IL-1β / TNF-α: serum, ELISA
# Procedure: Subsequently, the SD rats were randomly divided into 5 groups according to their body weight, with 8 rats in each group and half male and half female.
# Except for the blank control group, SD rats were used to establish a rat model of chronic obstructive pulmonary disease (COPD) by fumigation and intratracheal instillation of LPS. On days 1, 14, 28 and 42 of modeling, the rats were anesthetized with chloral hydrate and then 125 µL of LPS (2 mg/mL) solution was instilled into the trachea. For the rest of the time, the animals were placed in a self-made fumigation box and each group of rats was continuously fumigated with 10 lit cigarettes for 1.5 hours (once in the morning and once in the afternoon) for 50 consecutive days. After the model was established, the rats in each group were given the drug twice a day for 28 consecutive days.
# The rat lung function test instrument was used to measure FVC and FEV1 on day 14 of treatment and at the last administration, and the FEV1/FVC ratio was calculated.
# Blood samples were collected after the last administration of the drug to measure inflammatory markers. Levels of IL-1β and TNF-α in serum were measured according to the ELISA instructions.
# After the last treatment, all three lobes of the right lung of the rats were removed, fixed and dehydrated in 10% formaldehyde, embedded in paraffin, sectioned, and stained with hematoxylin and eosin (HE). The morphological changes of the lung tissue of the rats in each group were observed.
# PDE4A1A = target: T2, PDE4A1A (Homo sapiens, UniProt P27815); assay: Selectivity for PDE4 enzyme isotypes, same detection method as PDE4B; format: biochemical
# T2 construct: purchased BPS bioscience
# T2 sequence (P27815 1-647 isoform P27815-4): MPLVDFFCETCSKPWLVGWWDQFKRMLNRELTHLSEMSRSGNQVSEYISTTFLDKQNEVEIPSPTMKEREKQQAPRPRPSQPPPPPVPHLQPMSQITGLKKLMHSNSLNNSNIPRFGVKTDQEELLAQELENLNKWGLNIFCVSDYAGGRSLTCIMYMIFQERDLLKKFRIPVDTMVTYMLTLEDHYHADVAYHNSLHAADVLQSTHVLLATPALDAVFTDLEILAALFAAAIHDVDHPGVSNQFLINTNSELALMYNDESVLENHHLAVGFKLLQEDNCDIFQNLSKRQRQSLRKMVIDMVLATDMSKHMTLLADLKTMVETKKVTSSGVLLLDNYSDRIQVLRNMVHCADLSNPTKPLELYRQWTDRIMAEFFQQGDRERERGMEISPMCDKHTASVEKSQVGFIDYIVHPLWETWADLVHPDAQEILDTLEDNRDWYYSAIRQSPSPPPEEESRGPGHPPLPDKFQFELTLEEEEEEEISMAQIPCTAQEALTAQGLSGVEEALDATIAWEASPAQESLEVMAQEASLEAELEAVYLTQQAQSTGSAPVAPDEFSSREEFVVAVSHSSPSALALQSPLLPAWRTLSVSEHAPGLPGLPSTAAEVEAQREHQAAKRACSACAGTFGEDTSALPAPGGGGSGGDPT
# Procedure: (§1) 2.1 Compound preparation and treatment: all compounds were prepared into 50 mM stock solutions using dimethyl sulfoxide.
# (§2) 2.2 Preparation of working stock solution: a) the reference rolipram was serially diluted 3 times with dimethyl sulfoxide starting from 2 mmol, to a total of 10 concentrations. b) 2 mmol of the compound of the present invention was serially diluted three times with dimethyl sulfoxide (DMSO) to a total of 10 concentrations. c) A 200X positive control (2 mM rolipram) and a 200X vector control (100% dimethyl sulfoxide) were prepared. d) The compound plate was centrifuged at 1000 rpm for 1 minute.
# (§3) • a) An Echo 550 was used to transfer 20 nL of compound dilution to each well of the detection plate. • b) The test plate was sealed and centrifuged at 1000 rpm for 1 minute. • c) 2X PDE4B2 was prepared in frozen PDE detection buffer. • d) 2 µL of 2X PDE4B2 was added to each well of the detection plate (prepared in step b). • e) The test plate was sealed and incubated for 10 minutes under RT conditions. • f) 2X Cyclic-3',5'-AMP was prepared in PDE detection buffer. • g) 2 µl of 2X Cyclic-3',5'-AMP (prepared in step f) was added to each well of the detection plate (prepared in step e) to initiate the reaction. Incubation was performed at room temperature for 60 minutes. • h) 4 µL of AMP-Glo reagent I was added. • i) 8 µL of AMP detection solution was added. Incubation was performed at room temperature for 60 minutes. • k) The RLU signal was read on the Envision 2105 reader.
# (§4) Same detection method as PDE4B
# PDE4B2A = target: T3, PDE4B2A (Homo sapiens, UniProt Q07343); assay: as above; format: biochemical
# T3 construct: purchased BPS bioscience
# T3 sequence (Q07343 1-564 isoform Q07343-2): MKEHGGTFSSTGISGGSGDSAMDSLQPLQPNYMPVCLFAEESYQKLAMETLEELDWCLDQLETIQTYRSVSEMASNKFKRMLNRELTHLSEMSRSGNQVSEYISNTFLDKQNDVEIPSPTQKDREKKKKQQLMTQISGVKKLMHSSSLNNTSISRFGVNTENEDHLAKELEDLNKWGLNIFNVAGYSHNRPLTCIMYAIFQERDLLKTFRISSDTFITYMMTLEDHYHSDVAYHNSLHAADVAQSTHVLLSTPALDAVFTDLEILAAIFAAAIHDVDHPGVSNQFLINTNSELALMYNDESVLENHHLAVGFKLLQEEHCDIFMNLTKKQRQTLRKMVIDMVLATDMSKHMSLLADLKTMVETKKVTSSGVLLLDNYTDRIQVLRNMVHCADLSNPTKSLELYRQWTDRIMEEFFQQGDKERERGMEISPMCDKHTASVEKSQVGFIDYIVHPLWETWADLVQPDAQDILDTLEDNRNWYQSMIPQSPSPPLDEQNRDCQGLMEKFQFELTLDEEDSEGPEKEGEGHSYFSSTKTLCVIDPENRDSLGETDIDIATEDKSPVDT
# Procedure: as §1, §2, §3, §4
# PDE4C1 = target: T4, PDE4C1 (Homo sapiens, UniProt Q08493); assay: as above; format: biochemical
# T4 construct: purchased BPS bioscience
# T4 sequence (Q08493 whole entry): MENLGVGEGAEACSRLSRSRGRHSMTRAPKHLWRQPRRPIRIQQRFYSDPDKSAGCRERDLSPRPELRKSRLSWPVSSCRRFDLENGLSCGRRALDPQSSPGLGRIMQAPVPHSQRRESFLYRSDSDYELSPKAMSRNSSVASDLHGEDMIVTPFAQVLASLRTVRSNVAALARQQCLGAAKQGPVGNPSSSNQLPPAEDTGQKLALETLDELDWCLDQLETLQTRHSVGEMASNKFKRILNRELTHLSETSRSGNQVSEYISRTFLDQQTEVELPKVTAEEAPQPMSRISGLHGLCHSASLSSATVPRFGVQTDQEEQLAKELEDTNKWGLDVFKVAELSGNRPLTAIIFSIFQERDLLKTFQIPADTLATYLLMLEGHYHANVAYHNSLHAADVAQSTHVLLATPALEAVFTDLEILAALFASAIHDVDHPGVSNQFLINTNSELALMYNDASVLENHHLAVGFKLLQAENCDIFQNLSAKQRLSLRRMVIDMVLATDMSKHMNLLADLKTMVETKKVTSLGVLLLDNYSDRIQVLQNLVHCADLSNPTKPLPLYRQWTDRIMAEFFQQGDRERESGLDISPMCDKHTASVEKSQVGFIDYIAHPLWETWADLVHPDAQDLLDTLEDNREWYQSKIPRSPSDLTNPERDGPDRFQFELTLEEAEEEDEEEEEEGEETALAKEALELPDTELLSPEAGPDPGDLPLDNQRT
# Procedure: as §1, §2, §3, §4
# PDE4D2 = target: T5, PDE4D2 (Homo sapiens, UniProt Q08499); assay: as above; format: biochemical
# T5 construct: purchased BPS bioscience
# T5 sequence (Q08499 303-809): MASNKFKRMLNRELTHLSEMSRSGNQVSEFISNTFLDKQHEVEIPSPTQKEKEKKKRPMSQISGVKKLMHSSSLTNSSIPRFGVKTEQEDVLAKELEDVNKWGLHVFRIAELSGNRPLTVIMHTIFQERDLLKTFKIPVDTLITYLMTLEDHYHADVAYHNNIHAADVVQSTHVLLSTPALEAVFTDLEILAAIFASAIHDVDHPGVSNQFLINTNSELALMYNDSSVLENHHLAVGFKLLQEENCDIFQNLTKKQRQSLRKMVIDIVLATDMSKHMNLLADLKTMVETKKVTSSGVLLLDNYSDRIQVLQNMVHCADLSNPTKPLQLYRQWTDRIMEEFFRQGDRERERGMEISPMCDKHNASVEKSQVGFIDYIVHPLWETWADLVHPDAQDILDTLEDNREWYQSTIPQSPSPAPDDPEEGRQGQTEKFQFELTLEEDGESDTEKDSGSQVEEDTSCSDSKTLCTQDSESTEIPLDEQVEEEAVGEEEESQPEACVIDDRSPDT
# Procedure: as §1, §2, §3, §4
# PDE4D3 = target: T6, PDE4D3 (Homo sapiens, UniProt Q08499); assay: as above; format: biochemical
# T6 construct: purchased BPS bioscience
# T6 sequence (Q08499 1-673 isoform Q08499-2): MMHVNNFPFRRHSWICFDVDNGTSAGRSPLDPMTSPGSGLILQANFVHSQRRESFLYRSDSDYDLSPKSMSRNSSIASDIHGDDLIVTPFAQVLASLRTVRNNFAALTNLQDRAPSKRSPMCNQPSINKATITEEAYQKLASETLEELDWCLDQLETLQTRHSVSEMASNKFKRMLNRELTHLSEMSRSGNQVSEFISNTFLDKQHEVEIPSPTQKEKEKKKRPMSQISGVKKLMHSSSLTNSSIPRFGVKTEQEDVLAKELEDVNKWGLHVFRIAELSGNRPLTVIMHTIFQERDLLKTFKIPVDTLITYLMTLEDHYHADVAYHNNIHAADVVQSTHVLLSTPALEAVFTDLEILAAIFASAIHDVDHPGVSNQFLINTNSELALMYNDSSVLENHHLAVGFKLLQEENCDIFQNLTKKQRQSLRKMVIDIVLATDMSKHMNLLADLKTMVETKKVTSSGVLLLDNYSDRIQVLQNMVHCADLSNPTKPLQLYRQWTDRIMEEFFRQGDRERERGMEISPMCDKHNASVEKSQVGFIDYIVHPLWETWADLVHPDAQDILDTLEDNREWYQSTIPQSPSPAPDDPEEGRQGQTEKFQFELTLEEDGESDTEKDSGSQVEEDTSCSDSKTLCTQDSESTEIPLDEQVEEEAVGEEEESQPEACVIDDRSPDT
# Procedure: as §1, §2, §3, §4
# [4] = 5 mg/kg intragastric twice daily for 14 days
# [5] = 10 mg/kg intragastric twice daily for 14 days
# [6] = 20 mg/kg intragastric twice daily for 14 days
# [7] = 5 mg/kg twice daily for 14 days
# [8] = 10 mg/kg twice daily for 14 days
# [9] = 20 mg/kg twice daily for 14 days
# [10] = 5 mg/kg twice a day for 28 days
# [11] = 10 mg/kg twice a day for 28 days
# [12] = 20 mg/kg twice a day for 28 days
# T1 sequence (Q12809 whole entry): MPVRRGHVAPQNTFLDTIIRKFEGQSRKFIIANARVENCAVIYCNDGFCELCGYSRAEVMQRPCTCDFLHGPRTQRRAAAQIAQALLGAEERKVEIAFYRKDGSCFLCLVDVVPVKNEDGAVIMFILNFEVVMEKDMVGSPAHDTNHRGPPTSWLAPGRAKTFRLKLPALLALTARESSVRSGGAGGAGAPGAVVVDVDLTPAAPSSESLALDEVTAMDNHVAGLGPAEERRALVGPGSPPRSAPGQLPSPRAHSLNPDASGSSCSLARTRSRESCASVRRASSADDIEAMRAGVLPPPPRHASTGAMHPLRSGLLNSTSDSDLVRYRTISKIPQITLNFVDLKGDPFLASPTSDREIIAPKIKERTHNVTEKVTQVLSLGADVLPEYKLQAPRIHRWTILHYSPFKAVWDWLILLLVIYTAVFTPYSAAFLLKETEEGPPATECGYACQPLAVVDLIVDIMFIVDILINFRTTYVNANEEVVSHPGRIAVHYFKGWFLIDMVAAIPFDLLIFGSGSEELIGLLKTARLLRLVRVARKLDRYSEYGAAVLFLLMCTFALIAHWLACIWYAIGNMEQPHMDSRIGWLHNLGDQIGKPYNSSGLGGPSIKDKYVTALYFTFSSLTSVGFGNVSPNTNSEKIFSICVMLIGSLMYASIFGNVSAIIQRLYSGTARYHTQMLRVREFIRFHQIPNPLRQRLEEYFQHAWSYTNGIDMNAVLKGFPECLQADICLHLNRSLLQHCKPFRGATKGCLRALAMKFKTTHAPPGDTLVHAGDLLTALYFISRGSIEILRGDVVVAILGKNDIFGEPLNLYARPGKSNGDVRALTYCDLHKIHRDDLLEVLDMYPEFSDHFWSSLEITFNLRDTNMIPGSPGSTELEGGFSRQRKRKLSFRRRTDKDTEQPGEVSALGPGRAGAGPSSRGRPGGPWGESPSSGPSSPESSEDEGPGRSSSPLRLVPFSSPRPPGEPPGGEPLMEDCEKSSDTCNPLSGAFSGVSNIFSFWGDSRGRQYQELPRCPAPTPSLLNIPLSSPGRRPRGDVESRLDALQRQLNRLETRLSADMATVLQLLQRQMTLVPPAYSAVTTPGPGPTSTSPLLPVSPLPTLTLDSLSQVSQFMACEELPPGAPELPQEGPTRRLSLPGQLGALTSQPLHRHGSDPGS
structure (smiles),measurement,setting,value
"O=C(O)Cc1ccc(Nc2nc(N3CCC(c4ncc(Cl)cn4)CC3)nc3c2S(=O)(=O)CCC3)cc1F [Example 11, 2-(4-((2-(4-(5-chloropyrimidin-2-yl)piperidin-1-yl)-5,5-dioxo-7,8-dihydro-6H -thiapyrano[3,2-d]pyrimidin-4-yl)amino)-2-fluorophenyl)acetic acid]",pIC50,hERG potassium channel,< 4.52
same,Percentage of lung collagen fibers (%),[1]; [4],16.1±4.6 %
same,Percentage of lung collagen fibers (%),[1]; [5],9.7±2.2 %
same,Percentage of lung collagen fibers (%),[1]; [6],8.5±2.5 %
same,IL-6,[1]; [4],34.8 ± 3.7 pg/mL
same,TGF-β,[1]; [4],79.0 ± 6.4 pg/mL
same,IL-6,[1]; [5],32.5 ± 6.1 pg/mL
same,TGF-β,[1]; [5],69.1 ± 6.3 pg/mL
same,IL-6,[1]; [6],28.3 ± 3.9 pg/mL
same,TGF-β,[1]; [6],56.3 ± 5.2 pg/mL
same,IL-4,[2]; [7],70.92 ± 10.87 pg/mL
same,IgE,[2]; [7],266.55 ± 52.03 pg/mL
same,IL-4,[2]; [8],59.38 ± 9.90 pg/mL
same,IgE,[2]; [8],219.05 ± 38.74 pg/mL
same,IL-4,[2]; [9],51.13 ± 16.07 pg/mL
same,IgE,[2]; [9],189.36 ± 56.69 pg/mL
same,Eosinophils (%),[2]; [7],21.97±2.58 %
same,Eosinophils (%),[2]; [8],17.93±3.30 %
same,Eosinophils (%),[2]; [9],16.04±2.97 %
same,Number of sneezes (20 minutes),[2]; [7],17.9±3.4
same,Number of sneezes (20 minutes),[2]; [8],16.3±3.7
same,Number of sneezes (20 minutes),[2]; [9],13.8±1.9
same,14-day FEV 1/FVC (%),[3]; 5 mg/kg twice a day,66.65±5.48 %
same,28-day FEV 1/FVC (%),[3]; 5 mg/kg twice a day,69.99±2.65 %
same,14-day FEV 1/FVC (%),[3]; 10 mg/kg twice a day,72.14±6.56 %
same,28-day FEV 1/FVC (%),[3]; 10 mg/kg twice a day,75.30±1.84 %
same,14-day FEV 1/FVC (%),[3]; 20 mg/kg twice a day,76.78±5.41 %
same,28-day FEV 1/FVC (%),[3]; 20 mg/kg twice a day,77.10±1.81 %
same,Pathological score,[3]; [10],3.83 ± 0.75
same,Pathological score,[3]; [11],2.00±0.63
same,Pathological score,[3]; [12],1.83±0.41
same,IL-1β,[3]; [10],71.13 ± 16.14 pg/mL
same,TNF-α,[3]; [10],118.36 ± 27.30 pg/mL
same,IL-1β,[3]; [11],51.92 ± 16.06 pg/mL
same,TNF-α,[3]; [11],90.15 ± 15.79 pg/mL
same,IL-1β,[3]; [12],50.75 ± 15.07 pg/mL
same,TNF-α,[3]; [12],73.23 ± 11.78 pg/mL
[O-][S+]1CCc2nc(N3CCC(c4ncc(Cl)cn4)CC3)nc(NC3(CO)CCC3)c21 (stereo not drawn) [WO2013026797 (Compound II)],IC50,PDE4A1A,112 nM
same,Selectivity over PDE4B,PDE4A1A; PDE4A1A vs PDE4B2A,4.5
same,IC50,PDE4B2A,24.5 nM
same,Selectivity over PDE4B,PDE4B2A; PDE4B2A vs PDE4B2A,1
same,IC50,PDE4C1,2190 nM
same,Selectivity over PDE4B,PDE4C1; PDE4C1 vs PDE4B2A,89
same,IC50,PDE4D2,37.1 nM
same,Selectivity over PDE4B,PDE4D2; PDE4D2 vs PDE4B2A,1.5
same,IC50,PDE4D3,65.8 nM
same,Selectivity over PDE4B,PDE4D3; PDE4D3 vs PDE4B2A,2.7
same,IC50 at 5 min,"hERG potassium channel; human, HEK-293 cells stably expressing hERG potassium channels",> 3280 nM
